Test results taken from article PMC6352943, “Novel pyrazolo[3,4-d]pyrimidines: design, synthesis, anticancer activity, dual EGFR/ErbB2 receptor tyrosine kinases inhibitory activity, effects on cell cycle profile and caspase-3-mediated apoptosis” (Journal of Enzyme Inhibition and Medicinal Chemistry, 2019).

How the values were obtained:
Assay in all cases: NCI 60 cell line single dose screen (SRB)
Type in all cases: cell-based
CCRF-CEM = conditions: Homo sapiens; CCRF-CEM (leukemia), single dose 10^−5 M, 48 h; read-out: Growth inhibition percentage
Method: (§1) Anticancer activity screening of the newly synthesised compounds was measured in vitro utilising 60 different human tumour cell lines provided by US National Cancer Institute according to previously reported standard procedure[27–29] as follows: Cells are inoculated into 96-well microtitre plates in 100 ml. After cell inoculation, the microtitre plates are incubated at 37 °C, 5% CO2, 95% air and 100% relative humidity for 24 h prior to addition of experimental compounds. After 24 h, two plates of each cell line are fixed in situ with TCA, to represent a measurement of the cell population for each cell line at the time of drug addition (Tz). Experimental compounds are solubilised in dimethyl sulphoxide at 400-fold the desired final maximum test concentration and stored frozen prior to use. At the time of compound addition, an aliquot of frozen concentrate is thawed and diluted to twice the desired final maximum test concentration with complete medium containing […] gentamicin. Aliquots of […] of the compounds dilutions are added to the appropriate microtitre wells already containing 100 ml of medium, resulting in the required final compound concentration. Following compound addition, the plates are incubated for an additional 48 h at 37 °C, 5% CO2, 95% air, and 100% relative humidity. For adherent cells, the assay is terminated by the addition of cold trichloroacetic acid (TCA). Cells are fixed in situ by the gentle addition of 50 ml of cold 50% (w/v) TCA (final concentration, 10% TCA) and incubated for 60 min at 4 °C. The supernatant is discarded, and the plates are washed five times with tap water and air-dried. Sulphorhodamine B (SRB) solution (100 ml) at 0.4% (w/v) in 1% acetic acid is added to each well, and plates are incubated for 10 min at room temperature. After staining, unbound dye is removed by washing five times with 1% acetic acid and the plates are air-dried. Bound stain is subsequently solubilised with 10 mM trizma base, and the absorbance is read on an automated plate reader at a wavelength of 515 nm. For suspension cells, the methodology is the same except that the assay is terminated by fixing settled cells at the bottom of the wells by gently adding 50 ml of 80% TCA (final concentration, 16% TCA). Using the absorbance measurements [time zero, (Tz), control growth, (C), and test growth in the presence of compound (Ti)], the percentage growth is calculated for each compound. Percentage growth inhibition is calculated as: [(Ti – Tz)/(C – Tz)] x 100 for concentrations for which Ti >/=Tz. [(Ti – Tz)/Tz] x 100 for concentrations for which Ti < Tz.

K-562 = conditions: Homo sapiens, K562; K-562 (leukemia), single dose 10^−5 M, 48 h; read-out: Growth inhibition percentage
Method: as §1

SK-MEL-2 = conditions: Homo sapiens; SK-MEL-2 (melanoma), single dose 10^−5 M, 48 h; read-out: Growth inhibition percentage
Method: as §1

SF-295 = conditions: Homo sapiens; SF-295 (CNS cancer), single dose 10^−5 M, 48 h; read-out: Growth inhibition percentage
Method: as §1

HCT-15 = conditions: Homo sapiens; HCT-15 (colon cancer), single dose 10^−5 M, 48 h; read-out: Growth inhibition percentage
Method: as §1

BT-549 = conditions: Homo sapiens; BT-549 (breast cancer), single dose 10^−5 M, 48 h; read-out: Growth inhibition percentage
Method: as §1

SW-620 = conditions: Homo sapiens; SW-620 (colon cancer), single dose 10^−5 M, 48 h; read-out: Growth inhibition percentage
Method: as §1

M14 = conditions: Homo sapiens; M14 (melanoma), single dose 10^−5 M, 48 h; read-out: Growth inhibition percentage
Method: as §1

UO-31 = conditions: Homo sapiens; UO-31 (renal cancer), single dose 10^−5 M, 48 h; read-out: Growth inhibition percentage
Method: as §1

NCI-H460 = conditions: Homo sapiens; NCI-H460 (non-small cell lung cancer), single dose 10^−5 M, 48 h; read-out: Growth inhibition percentage
Method: as §1

SK-MEL-5 = conditions: Homo sapiens; SK-MEL-5 (melanoma), single dose 10^−5 M, 48 h; read-out: Growth inhibition percentage
Method: as §1

SN12C = conditions: Homo sapiens; SN12C (renal cancer), single dose 10^−5 M, 48 h; read-out: Growth inhibition percentage
Method: as §1

MDA-MB-231/ATCC = conditions: Homo sapiens; MDA-MB-231/ATCC (breast cancer), single dose 10^−5 M, 48 h; read-out: Growth inhibition percentage
Method: as §1

MDA-MB-468 = conditions: Homo sapiens; MDA-MB-468 (breast cancer), single dose 10^−5 M, 48 h; read-out: Growth inhibition percentage
Method: as §1

ACHN = conditions: Homo sapiens; ACHN (renal cancer), single dose 10^−5 M, 48 h; read-out: Growth inhibition percentage
Method: as §1

MDA-MB-435 = conditions: Homo sapiens; MDA-MB-435 (melanoma), single dose 10^−5 M, 48 h; read-out: Growth inhibition percentage
Method: as §1

HOP-92 = conditions: Homo sapiens; HOP-92 (non-small cell lung cancer), single dose 10^−5 M, 48 h; read-out: Growth inhibition percentage
Method: as §1

MOLT-4 = conditions: Homo sapiens; MOLT-4 (leukemia), single dose 10^−5 M, 48 h; read-out: Growth inhibition percentage
Method: as §1

RXF 393 = conditions: Homo sapiens; RXF 393 (renal cancer), single dose 10^−5 M, 48 h; read-out: Growth inhibition percentage
Method: as §1

RPMI-8226 = conditions: Homo sapiens; RPMI-8226 (leukemia), single dose 10^−5 M, 48 h; read-out: Growth inhibition percentage
Method: as §1

SNB-75 = conditions: Homo sapiens; SNB-75 (CNS cancer), single dose 10^−5 M, 48 h; read-out: Growth inhibition percentage
Method: as §1

Row | Compound | inhibition at 10 µM (CCRF-CEM) | inhibition at 10 µM (K-562) | inhibition at 10 µM (SK-MEL-2) | inhibition at 10 µM (SF-295) | inhibition at 10 µM (HCT-15) | inhibition at 10 µM (BT-549) | inhibition at 10 µM (SW-620) | inhibition at 10 µM (M14) | inhibition at 10 µM (UO-31) | inhibition at 10 µM (NCI-H460) | inhibition at 10 µM (SK-MEL-5) | inhibition at 10 µM (SN12C) | inhibition at 10 µM (MDA-MB-231/ATCC) | inhibition at 10 µM (MDA-MB-468) | inhibition at 10 µM (ACHN) | inhibition at 10 µM (MDA-MB-435) | inhibition at 10 µM (HOP-92) | inhibition at 10 µM (MOLT-4) | inhibition at 10 µM (RXF 393) | inhibition at 10 µM (RPMI-8226) | further results
1 | Cc1nn(-c2ccc(F)cc2)c2nc(N)nc(N)c12 [Compound 5, 1–(4-Fluorophenyl)-3-methyl-1H-pyrazolo[3,4-d]pyrimidine-4,6-diamine] | -16.8% | -11.9% | 3.86% | -1.89% | -3.69% | -17.4% | -16.8% | -2.93% | 14.2% | -18.8% | 0.86% | -2.74% | -9.11% | -15.5% | -3.79% | -7.73% | 1.64% | -0.48% | -13% | -3.69% | inhibition at 10 µM (SNB-75): 5.33%
2 | COc1cc(C=NNc2ncnc3c2c(C)nn3-c2ccc(F)cc2)ccc1O [Compound 10b, 1–(4-Fluorophenyl)-4–(2-(4-hydroxy-3-methoxybenzylidene)-hydrazinyl)-3-methyl-1H-pyrazolo[3,4-d]pyrimidine] | 38% | 24.2% | 10.2% | -5.51% | 18.9% | 9.63% | -30.9% | -2.1% | 35.6% | 11.9% | 43.4% | 14.9% | 15.6% | 8.05% | 7.34% | 4.56% | 39.5% | 38.3% | 4.9% | 7.52% | inhibition at 10 µM (SNB-75): 17.5%
3 | COc1ccc(N2CCN(c3ncnc4c3c(C)nn4-c3ccc(F)cc3)CC2)cc1 [Compound 8d, 1–(4-Fluorophenyl)-4–(4-(4-methoxyphenyl)piperazin-1-yl)-3-methyl-1H-pyrazolo[3,4-d]pyrimidine] | 0.86% | -4% | -1.69% | -2.4% | -5.55% | 2.13% | -0.63% | 3.95% | 21.3% | -4.87% | -1.01% | 6.31% | 2.36% | 0.37% | -0.34% | -6.1% | 4.73% | 3.49% | -9.45% | 6.45% | inhibition at 10 µM (SNB-75): 5.93%
4 | Cc1nn(-c2ccc(F)cc2)c2ncnc(NN)c12 [Compound 9, 1–(4-Fluorophenyl)-4-hydrazinyl-3-methyl-1H-pyrazolo[3,4-d]-pyrimidine] | 30.9% | -3.06% | 18.3% | -3.92% | -5.82% | -10.8% | -8.79% | -8% | 28.7% | -11.7% | 3.85% | 8.3% | 23.1% | 18.5% | 2.07% | -9.22% | 13.4% | 22.7% | 5.47% | -6.21% | inhibition at 10 µM (SNB-75): -0.56%
5 | Cc1nn(-c2ccc(F)cc2)c2ncnc(N3CCOCC3)c12 [Compound 8a, 1–(4-Fluorophenyl)-3-methyl-4-morpholino-1H-pyrazolo[3,4-d]pyrimidine] | 2.31% | -3.68% | 1.49% | 0.61% | -2.04% | 3.96% | -4.76% | -4.47% | 5.57% | -8.23% | -0.67% | 1.12% | -10.4% | -7.8% | -10.3% | -2.24% | 9.27% | 5.79% | -15.7% | 2% | inhibition at 10 µM (SNB-75): 0.92%
6 | Cc1nn(-c2ccc(F)cc2)c2ncnc(Cl)c12 [Compound 6, 4-Chloro-1–(4-fluorophenyl)-3-methyl-1H-pyrazolo[3,4-d]pyrimidine] | 1.47% | 15.4% | 11% | -4.11% | 1.32% | -11.5% | -2.88% | 5.89% | 11.8% | -0.07% | 5.94% | 1.02% | 10.8% | 8.7% | 4.11% | -8.83% | 7.91% | 13.8% | -3.61% | 2.21% | inhibition at 10 µM (SNB-75): 6.36%
7 | Cc1ccc(Nc2ncnc3c2c(C)nn3-c2ccc(F)cc2)cc1 [Compound 7c, 1–(4-Fluorophenyl)-3-methyl-N-(p-tolyl)-1H-pyrazolo[3,4-d]-pyrimidin-4-amine] | -8.18% | 0.26% | 10.9% | -3.83% | -0.49% | -8.83% | -8.11% | 0.75% | 8.66% | -9.33% | -3.74% | 48.4% | -2.67% | -15% | -12.2% | -6.94% | 3.79% | 1.83% | -13.7% | -4.47% | inhibition at 10 µM (SNB-75): -5.2%
